Drawing on US6849653B2, “Substituted pyrazolyl benzenesulfamide compounds for the treatment of inflammation” (Pharmacia Corporation, priority 2001, dated 2005), this text covers IC50 for 20 compounds.

A value given as a limit tells only on which side of the number the result lay.

The target in the experiment is T1, rhIKK1/IKK2 heterodimer (Homo sapiens, UniProt O14920+O15111).
T1 construct: made in house; host or cells: insect cells (baculovirus coinfection; SF9)
T1 sequence (O14920 1-756): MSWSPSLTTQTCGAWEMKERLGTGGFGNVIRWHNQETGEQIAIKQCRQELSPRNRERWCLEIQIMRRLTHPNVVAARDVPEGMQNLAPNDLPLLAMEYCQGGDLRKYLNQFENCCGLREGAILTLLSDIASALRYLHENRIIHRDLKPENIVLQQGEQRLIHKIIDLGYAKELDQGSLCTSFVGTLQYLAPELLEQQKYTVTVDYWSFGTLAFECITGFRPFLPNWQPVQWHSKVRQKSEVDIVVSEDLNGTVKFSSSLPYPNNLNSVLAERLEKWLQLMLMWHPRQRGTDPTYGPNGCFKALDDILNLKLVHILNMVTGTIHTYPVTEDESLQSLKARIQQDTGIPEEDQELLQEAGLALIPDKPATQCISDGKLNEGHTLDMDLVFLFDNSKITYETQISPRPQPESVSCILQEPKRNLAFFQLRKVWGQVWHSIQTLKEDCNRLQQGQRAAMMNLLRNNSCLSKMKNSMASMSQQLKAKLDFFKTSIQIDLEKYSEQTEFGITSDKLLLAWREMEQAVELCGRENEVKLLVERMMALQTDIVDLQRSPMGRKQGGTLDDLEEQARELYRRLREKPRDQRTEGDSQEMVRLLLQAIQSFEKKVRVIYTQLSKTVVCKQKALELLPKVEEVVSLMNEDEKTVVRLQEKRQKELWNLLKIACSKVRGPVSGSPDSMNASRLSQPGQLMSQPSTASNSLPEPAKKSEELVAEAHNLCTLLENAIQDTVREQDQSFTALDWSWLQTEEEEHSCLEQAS
T1 sequence (O15111 1-745): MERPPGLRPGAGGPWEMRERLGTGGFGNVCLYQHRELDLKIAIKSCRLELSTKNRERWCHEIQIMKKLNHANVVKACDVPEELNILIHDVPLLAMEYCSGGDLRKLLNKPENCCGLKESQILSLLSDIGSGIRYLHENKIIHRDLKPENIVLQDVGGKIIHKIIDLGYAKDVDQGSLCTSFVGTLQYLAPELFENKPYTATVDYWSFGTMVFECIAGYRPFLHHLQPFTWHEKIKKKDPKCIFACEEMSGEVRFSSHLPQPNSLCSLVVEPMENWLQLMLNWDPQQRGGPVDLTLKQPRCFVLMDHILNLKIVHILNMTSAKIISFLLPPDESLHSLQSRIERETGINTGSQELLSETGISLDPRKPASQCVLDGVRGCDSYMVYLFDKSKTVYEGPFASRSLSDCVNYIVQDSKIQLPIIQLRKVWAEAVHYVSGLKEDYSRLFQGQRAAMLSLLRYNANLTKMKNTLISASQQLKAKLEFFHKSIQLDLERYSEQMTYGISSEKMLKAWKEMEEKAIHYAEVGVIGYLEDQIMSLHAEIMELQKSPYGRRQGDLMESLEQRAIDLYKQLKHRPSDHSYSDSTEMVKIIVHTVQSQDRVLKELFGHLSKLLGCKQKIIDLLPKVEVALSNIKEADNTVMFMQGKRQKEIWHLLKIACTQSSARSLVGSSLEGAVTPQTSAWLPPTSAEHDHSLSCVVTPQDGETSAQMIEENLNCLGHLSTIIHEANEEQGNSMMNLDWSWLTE
Kind of experiment: IKK Heterodimer Resin Enzyme Assay. It counts as biochemical. To be noted: Table 1; values given as bins; read-out: HetD (IKK heterodimer assay values expressed as IC50). An excerpt:
cDNAs of human IKK1 and IKK2 were amplified by reverse transcriptase-polymerase chain reaction from human placental RNA (Clonetech). hIKK1 was subcloned into pFastBac HTa (Life Technologies) and expressed as N-terminal His6-tagged fusion protein. The hIKK2 cDNA was amplified using a reverse oligonucleotide primer which incorporated the peptide sequence for a FLAG-epitope tag at the C-terminus of the IKK2 coding region ([…]). The hIKK2:FLAG cDNA was subcloned into the baculovirus vector pFastBac. The rhIKK2 ([…]) mutant was constructed in the same vector used for wild type rhIKK2 using a QuikChange™ mutagenesis kit (Stratagene). Viral stocks of each construct were used to infect insect cells grown in 40L suspension culture. […] Cell lysates were stored at −80° C. until purification of the recombinant proteins was undertaken as described below.
Isolation of rhIKK1/IKK2 Heterodimer
The heterodimer enzyme was produced by coinfection in a baculovirus system (FLAG IKK2/IKK1 His; MOI=0.1 and I=72 hrs). Infected cells were centrifuged and the cell pellet (10.0 g) was suspended in 50 ml of buffer A. The protein suspension was microfluidized and centrifuged at 100,000×g for 45 min. Imidazole was added to the supernatant to a final concentration of 10 mM. The protein was allowed to bind 25 ml of Ni-NTA resin by mixing for 2 hrs. The protein-resin slurry was poured into a 25 ml column and washed with 250 ml of buffer A containing 10 mM imidazole followed by 125 ml of buffer A containing 50 mM imidazole. Buffer A, containing 300 mM imidazole, was then used to elute the protein. A 75 ml pool was collected and NP-40 was added to a final concentration of 0.1%. […] The protein-resin slurry was then centrifuged for 5 min at 2,000 rpm. The supernatant was collected and the resin re-suspended in 100 ml of buffer C containing 0.1% NP-40. The resin was washed with 375 ml of buffer C containing 0.1% NP-40. The protein-resin was poured into a 25 ml column and the enzyme eluted using buffer B containing FLAG peptide. Enzyme fractions (100 ml) were collected and concentrated to 20 ml using an Amicon membrane with molecular weight cut-off of 30 kDa. Bovine serum albumin was added to the concentrated enzyme to final concentration of 0.1%. The enzyme was then aliquoted and stored at −80° C.
IKK Heterodimer Resin Enzyme Assay
Resin was allowed to settle for one hour and 50 ul of supernatant was removed to a Micolite-2 flat bottom plate (Dynex). 150 μl of scintillation fluid (Microscint 40) (Packard) was added to each well. Incorporation of [γ-^33P] ATP was measured using a Top-Count NXT (Packard).

Turning to `NC(=O)c1nn(-c2ccc(S(N)(=O)=O)cc2)c2c1ccc1ccc(NC(=O)c3cccc(Cl)c3)cc12` [Example 9, 1-[4-(aminosulfonyl)phenyl]-8-[(3-chlorobenzoyl)amino]-1H-benzo[g]indazole-3-carboxamide], the 50% inhibitory concentration (IC50) is ≤ 1 µM. As for `CC(=O)Nc1ccc2ccc3c(C(N)=O)nn(-c4ccc(S(N)(=O)=O)cc4)c3c2c1` [Example 20, 8-(acetylamino)-1-[4-(aminosulfonyl)phenyl]-1H-benzo[g]indazole-3-carboxamide], the IC50 was ≤ 1 µM. Regarding `N#Cc1cccc(C(=O)Nc2ccc3ccc4c(C(N)=O)nn(-c5ccc(S(N)(=O)=O)cc5)c4c3c2)c1` [Example 17, 1-[4-(aminosulfonyl)phenyl]-8-[(3-cyanobenzoyl)amino]-1H-benzo[g]indazole-3-carboxamide], the IC50 was ≤ 1 µM. For “8-amino-1-{4-[(aminothio)peroxy]phenyl}-1H-benzo[g]indazole-3-carboxamide [Example 4c]” the value was ≤ 1 µM. For `NC(=O)c1nn(-c2ccc(S(N)(=O)=O)cc2)c2c1ccc1ccc(NC(=O)c3cccnc3Cl)cc12` [Example 32, 1-[4-(aminosulfonyl)phenyl]-8-{[(2-chloropyridin-3-yl)carbonyl]amino}-1H-benzo[g]indazole-3-carboxamide] the value was ≤ 1 µM; for `NC(=O)c1nn(-c2ccc(S(N)(=O)=O)cc2)c2c1ccc1ccc(NS(=O)(=O)c3cc(C(F)(F)F)cc(C(F)(F)F)c3)cc12` [Example 24, 1-[4-(aminosulfonyl)phenyl]-8-({[3,5-bis(trifluoromethyl)phenyl]sulfonyl}amino)-1H-benzo[g]indazole-3-carboxamide], 1 to 10 µM. As to `NC(=O)c1nn(-c2ccc(S(N)(=O)=O)cc2)c2c1ccc1ccc(NC(=O)c3ccccc3C(F)(F)F)cc12` [Example 26, 1-[4-(aminosulfonyl)phenyl]-8-{[2-(trifluoromethyl)benzoyl]amino}-1H-benzo[g]indazole-3-carboxamide], the IC50 is ≤ 1 µM. For `NC(=O)c1nn(-c2ccc(S(N)(=O)=O)cc2)c2c1ccc1ccc(NC(=O)c3cccc(C(F)(F)F)c3)cc12` [Example 10, 1-[4-(aminosulfonyl)phenyl]-8-{[3-(trifluoromethyl)benzoyl]amino}-1H-benzo[g]indazole-3-carboxamide] the value was 1 to 10 µM; for `Cc1cccc(C(=O)Nc2ccc3ccc4c(C(N)=O)nn(-c5ccc(S(N)(=O)=O)cc5)c4c3c2)c1` [Example 11, 1-[4-(aminosulfonyl)phenyl]-8-[(3-methylbenzoyl)amino]-1H-benzo[g]indazole-3-carboxamide], ≤ 1 µM; for `C=CCN(CC=C)S(=O)(=O)c1ccc(-n2nc(C(N)=O)c3ccc4ccc(N)cc4c32)cc1` [Example 7, 8-amino-1-{4-[(diallylamino)sulfonyl]phenyl}-1H-benzo[g]indazole-3-carboxamide], ≤ 1 µM. On to `NC(=O)c1nn(-c2ccc(S(N)(=O)=O)cc2)c2c1ccc1ccc(NC(=O)c3ccccc3Cl)cc12` [Example 14, 1-[4-(aminosulfonyl)phenyl]-8-[(2-chlorobenzoyl)amino]-1H-benzo[g]indazole-3-carboxamide], for which the IC50 was ≤ 1 µM.

In the case of `NC(=O)c1nn(-c2ccc(S(N)(=O)=O)cc2)c2c1ccc1ccc(NS(=O)(=O)c3cc(Cl)c(Cl)cc3Cl)cc12` [Example 23, 1-[4-(aminosulfonyl)phenyl]-8-{[(2,4,5-trichlorophenyl)sulfonyl]amino}-1H-benzo[g]indazole-3-carboxamide], the IC50 is 1 to 10 µM. Regarding `CS(=O)(=O)Nc1ccc2ccc3c(C(N)=O)nn(-c4ccc(S(N)(=O)=O)cc4)c3c2c1` [Example 21, 1-[4-(aminosulfonyl)phenyl]-8-[(methylsulfonyl)amino]-1H-benzo[g]indazole-3-carboxamide], the IC50 was ≤ 1 µM. Regarding `NC(=O)c1nn(-c2ccc(S(N)(=O)=O)cc2)c2c1ccc1ccc(NC(=O)c3ccccc3F)cc12` [Example 31, 1-[4-(aminosulfonyl)phenyl]-8-[(2-fluorobenzoyl)amino]-1H-benzo[g]indazole-3-carboxamide], the IC50 is ≤ 1 µM.

Turning to `NC(=O)c1nn(-c2ccc(S(N)(=O)=O)cc2)c2c1ccc1ccc(NS(=O)(=O)c3cccc(Cl)c3)cc12` [Example 16, 1-[4-(aminosulfonyl)phenyl]-8-{[(3-chlorophenyl)sulfonyl]amino}-1H-benzo[g]indazole-3-carboxamide], the IC50 is 1 to 10 µM.

Regarding `NC(=O)c1nn(-c2ccc(S(N)(=O)=O)cc2)c2c1ccc1ccc(NC(=O)c3cccnc3)cc12` [Example 13, 1-[4-(aminosulfonyl)phenyl]-8-[(pyridin-3-ylcarbonyl)amino]-1H-benzo[g]indazole-3-carboxamide], the IC50 is ≤ 1 µM. The figure for `NC(=O)c1nn(-c2ccc(S(N)(=O)=O)cc2)c2c1ccc1ccc(NS(=O)(=O)c3cccc(Br)c3)cc12` [Example 15, 1-[4-(aminosulfonyl)phenyl]-8-{[(3-bromophenyl)sulfonyl]amino}-1H-benzo[g]indazole-3-carboxamide] is 1 to 10 µM. In the case of `Cc1cccc(S(=O)(=O)Nc2ccc3ccc4c(C(N)=O)nn(-c5ccc(S(N)(=O)=O)cc5)c4c3c2)c1` [Example 18, 1-[4-(aminosulfonyl)phenyl]-8-{[(3-methylphenyl)sulfonyl]amino}-1H-benzo[g]indazole-3-carboxamide], the IC50 fell in the range of 10 to 100 µM. Take `NC(=O)c1nn(-c2ccc(S(N)(=O)=O)cc2)c2c1ccc1ccc(NC(=O)c3c(Cl)cccc3Cl)cc12` [Example 28, 1-[4-(aminosulfonyl)phenyl]-8-[(2,6-dichlorobenzoyl)amino]-1H-benzo[g]indazole-3-carboxamide]: the IC50 is ≤ 1 µM. For the compound `NC(=O)c1nn(-c2ccc(S(N)(=O)=O)cc2)c2c1ccc1ccc(NC(=O)c3cccc(Br)c3)cc12` [Example 12, 1-[4-(aminosulfonyl)phenyl]-8-[(3-bromobenzoyl)amino]-1H-benzo[g]indazole-3-carboxamide], the IC50 is ≤ 1 µM.

What is called IC50 is the concentration needed to halve the response being measured.
